# Earlier results in patent US20090162488A1, “BEVERAGE PRODUCTS AND FLAVOR SYSTEMS HAVING A NON-SWEETENING AMOUNT OF MONATIN” (The Concentrate Manufacturing Company of Ireland, priority 2007, published 2009).
# Peptide text beside a SMILES is read from it.
# Settings: commonly accepted potency figures; weight basis versus sugar
row,Compound,potency figures: times as sweet as sugar
1,CC1=CC(=O)NS(=O)(=O)O1 [Acesulfame-K],200 times as sweet as sugar
2,C[C@@H](NC(=O)[C@@H](N)CC(=O)O)C(=O)NC1C(C)(C)SC1(C)C [Alitame],"2,000 times as sweet as sugar"
3,COC(=O)[C@H](Cc1ccccc1)NC(=O)[C@@H](N)CC(=O)O [Aspartame] (H-Asp-Phe-OMe),200 times as sweet as sugar
4,CC1(C)[C@@H](O[C@H]2O[C@H](C(=O)O)[C@@H](O)[C@H](O)[C@H]2O[C@@H]2O[C@H](C(=O)O)[C@@H](O)[C@H](O)[C@H]2O)CC[C@]2(C)[C@H]3C(=O)C=C4[C@@H]5C[C@@](C)(C(=O)O)CC[C@]5(C)CC[C@@]4(C)[C@]3(C)CC[C@@H]12 [Glycyrrhizin],30-50 times as sweet as sugar
5,C[C@H](CC[C@@H](O[C@@H]1O[C@H](CO[C@@H]2O[C@H](CO)[C@@H](O)[C@H](O)[C@H]2O)[C@@H](O)[C@H](O)[C@H]1O[C@@H]1O[C@H](CO)[C@@H](O)[C@H](O)[C@H]1O)C(C)(C)O)[C@H]1CC[C@@]2(C)[C@@H]3CC=C4[C@@H](CC[C@H](O[C@@H]5O[C@H](CO[C@@H]6O[C@H](CO)[C@@H](O)[C@H](O)[C@H]6O)[C@@H](O)[C@H](O)[C@H]5O)C4(C)C)[C@]3(C)[C@H](O)C[C@]12C [Mogroside V],100-300 times as sweet as sugar
6,COc1ccc(CCC(=O)c2c(O)cc(O[C@@H]3O[C@H](CO)[C@@H](O)[C@H](O)[C@H]3O[C@@H]3O[C@@H](C)[C@H](O)[C@@H](O)[C@H]3O)cc2O)cc1O [Neohesperidin dihydrochalcone],300 times as sweet as sugar
7,COC(=O)[C@H](Cc1ccccc1)NC(=O)[C@H](CC(=O)O)NCCC(C)(C)C [Neotame],"8,000 times as sweet as sugar"
8,C=C1C[C@@]23CC[C@H]4[C@@](C)(CCC[C@@]4(C)C(=O)O[C@@H]4O[C@H](CO)[C@@H](O)[C@H](O)[C@H]4O)[C@@H]2CC[C@]1(O[C@@H]1O[C@H](CO)[C@@H](O)[C@H](O[C@@H]2O[C@H](CO)[C@@H](O)[C@H](O)[C@H]2O)[C@H]1O[C@@H]1O[C@H](CO)[C@@H](O)[C@H](O)[C@H]1O)C3 [Rebaudioside A],150-300 times as sweet as sugar
9,O=C1NS(=O)(=O)c2ccccc21 [Saccharin],300 times as sweet as sugar
10,C=C1C[C@@]23CC[C@H]4[C@@](C)(CCC[C@@]4(C)C(=O)O[C@@H]4O[C@H](CO)[C@@H](O)[C@H](O)[C@H]4O)[C@@H]2CC[C@]1(O[C@@H]1O[C@H](CO)[C@@H](O)[C@H](O)[C@H]1O[C@@H]1O[C@H](CO)[C@@H](O)[C@H](O)[C@H]1O)C3 [Stevioside],100-250 times as sweet as sugar
11,OC[C@H]1O[C@H](O[C@]2(CCl)O[C@H](CCl)[C@@H](O)[C@@H]2O)[C@H](O)[C@@H](O)[C@H]1Cl [Sucralose],600 times as sweet as sugar

# Same assay, conditions: versus sugar (i.e., sucrose)
row,Compound,sweetness potency
1,"NC(CC(O)(Cc1c[nH]c2ccccc12)C(=O)O)C(=O)O (stereo not drawn) [Monatin, 2-hydroxy-2-(indol-3-lymethyl)-4-aminoglutaric acid]",about 2000 times as sweet as sugar
